Assay [1] concerns the target T1, human ALX receptor (Homo sapiens, UniProt P25090).
T1 construct: expressed in transfected cells; host or cells: HEK293 (HEK293-hALXR-Gα16)
T1 sequence (P25090 1-351): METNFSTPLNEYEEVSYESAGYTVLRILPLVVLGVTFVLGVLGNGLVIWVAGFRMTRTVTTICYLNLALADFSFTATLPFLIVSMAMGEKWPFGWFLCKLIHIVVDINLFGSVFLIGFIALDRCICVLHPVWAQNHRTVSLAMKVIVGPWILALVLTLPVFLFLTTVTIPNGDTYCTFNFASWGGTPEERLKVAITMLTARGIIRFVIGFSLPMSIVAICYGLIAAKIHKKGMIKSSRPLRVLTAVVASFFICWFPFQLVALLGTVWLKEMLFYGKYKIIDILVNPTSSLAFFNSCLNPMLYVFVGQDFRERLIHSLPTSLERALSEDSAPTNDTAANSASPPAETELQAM
Nature of the assay: Intracellular calcium measurements (FLIPR), agonistic activity in HEK293-hALXR-Gα16 cells. The settings on record: Fluo-4 calcium FLIPR, normalized to WKYMVm 10 nM. In kind it is cell-based. Put shortly: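 Agonist-induced calcium flux was recorded by FLIPR (488/540 nm) in HEK293-hALXR-Gα16 cells pre-loaded with Fluo-4 AM (1 μM, 60 min, 37°C). Peak signal above baseline, after subtracting buffer addition, was expressed relative to WKYMVm at 10 nM final.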
In general terms: A change in cytosolic calcium serves as a functional read-out for many receptors and channels.

Assay [2] has as its target T2, human FPRL2 (Homo sapiens, UniProt P25089).
T2 construct: expressed in transfected cells; host or cells: HEK293 (HEK293-hFPRL2-Gα16)
T2 sequence (P25089 1-353): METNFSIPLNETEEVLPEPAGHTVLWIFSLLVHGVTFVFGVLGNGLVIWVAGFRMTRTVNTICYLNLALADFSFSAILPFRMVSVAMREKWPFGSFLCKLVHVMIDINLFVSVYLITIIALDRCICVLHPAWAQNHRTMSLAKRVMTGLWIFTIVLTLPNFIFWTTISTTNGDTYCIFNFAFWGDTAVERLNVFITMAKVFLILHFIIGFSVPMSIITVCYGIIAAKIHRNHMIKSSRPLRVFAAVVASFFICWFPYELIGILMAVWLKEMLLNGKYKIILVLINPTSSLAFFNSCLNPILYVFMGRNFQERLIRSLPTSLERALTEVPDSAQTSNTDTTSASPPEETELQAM
Nature of the assay: Intracellular calcium measurements (FLIPR), agonistic activity in HEK293-hFPRL2-Gα16 cells. It is filed as cell-based. The settings on record: Fluo-4 calcium FLIPR, normalized to GLY14-Humanin 100 nM. Put shortly:
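Peak values after baseline subtraction are expressed relative to 100 nM Gly14-Humanin; compounds diluted in assay buffer from 10 mM DMSO stocks.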

Consider `COc1c(F)cc(CNC(=O)[C@H]2[C@H](C(=O)NCCCCN3CCCC3)[C@H]3C=C[C@@H]2C32CC2)cc1F` (racemic) [Example 229, (5R*)—N^5-(3,5-Difluoro-4-methoxy-phenyl-methyl)-(6R*)—N^6-(4-pyrrolidin-1-yl-butyl)-(4S*,7R*)-[4,7-ethenylene-spiro[2.4]heptane]-5,6-dicarboxamide], for which the EC50 was determined as 119 nM in assay [1] and 67 nM in assay [2].
For `O=C(NCCCCN1CCCC1)[C@H]1[C@H](C(=O)NCc2ccc(Cl)cc2)[C@@H]2C=C[C@H]1C21CC1` (racemic) [Example 230, (5R*)—N^5-(4-Chloro-phenyl-methyl)-(6R*)—N^6-(4-pyrrolidin-1-yl-butyl)-(4S*,7R*)-[4,7-ethenylene-spiro[2.4]heptane]-5,6-dicarboxamide], the EC50 in assay [1] is 31 nM; in assay [2], 65 nM.
Turning to `O=C(NCCCCN1CCCC1)[C@H]1[C@H](C(=O)NCc2ccc(F)cc2)[C@@H]2C=C[C@H]1C21CC1` (racemic) [Example 231, (5R*)—N^5-(4-Fluoro-phenyl-methyl)-(6R*)—N^6-(4-pyrrolidin-1-yl-butyl)-(4S*,7R*)-[4,7-ethenylene-spiro[2.4]heptane]-5,6-dicarboxamide], the EC50 in assay [1] stood at 514 nM; in assay [2], 159 nM.
`O=C(NCCCCN1CCCC1)[C@H]1[C@H](C(=O)NCc2ccc(OC(F)(F)F)cc2)[C@@H]2C=C[C@H]1C21CC1` (racemic) [Example 232, (5R*)—N^5-(4-Trifluoromethoxy-phenyl-methyl)-(6R*)—N^6-(4-pyrrolidin-1-yl-butyl)-(4S*,7R*)-[4,7-ethenylene-spiro[2.4]heptane]-5,6-dicarboxamide]: the EC50 in assay [1] is 1260 nM; in assay [2] it was 112 nM.
Turning to `CC(C)Oc1ccc(CNC(=O)[C@H]2[C@H](C(=O)NCCCCN3CCCC3)[C@H]3C=C[C@@H]2C32CC2)cc1` (racemic) [Example 233, (5R*)—N^5-(4-Isopropoxy-phenyl-methyl)-(6R*)—N^6-(4-pyrrolidin-1-yl-butyl)-(4S*,7R*)-[4,7-ethenylene-spiro[2.4]heptane]-5,6-dicarboxamide], the figures for the EC50 in assay [1] and in assay [2] were 7220 nM and 197 nM, respectively.
Take `O=C(NCCCCN1CCCC1)[C@H]1[C@H](C(=O)NCc2nc(Br)cs2)[C@@H]2C=C[C@H]1C21CC1` (racemic) [Example 234, (5R*)—N^5-(4-Bromo-thiazol-2-yl-methyl)-(6R*)—N^6-(4-pyrrolidin-1-yl-butyl)-(4S*,7R*)-[4,7-ethenylene-spiro[2.4]heptane]-5,6-dicarboxamide]: the EC50 in assay [1] turned out to be 73 nM; in assay [2] it was 176 nM.
The like results for `CC(=O)c1nc(CNC(=O)[C@H]2[C@H](C(=O)NCCCCN3CCCC3)[C@H]3C=C[C@@H]2C32CC2)co1` (racemic) [Example 235, (5R*)—N^5-(2-Acetyl-oxazol-4-yl-methyl)-(6R*)—N^6-(4-pyrrolidin-1-yl-butyl)-(4S*,7R*)-[4,7-ethenylene-spiro[2.4]heptane]-5,6-dicarboxamide] were, in that order, 153 nM and 181 nM.
Regarding `O=C(NCCCN1CCCC1)[C@H]1[C@H](C(=O)NCc2ccc(Br)cc2)[C@@H]2C=C[C@H]1C21CC1` (racemic) [Example 236, (5R*)—N^5-(4-Bromo-phenyl-methyl)-(6R*)—N^6-(3-pyrrolidin-1-yl-propyl)-(4S*,7R*)-[4,7-ethenylene-spiro[2.4]heptane]-5,6-dicarboxamide], the EC50 came out at 49 nM in assay [1] and 292 nM in assay [2].
Take `O=C(NCCCN1CCCC1)[C@H]1[C@H](C(=O)Nc2ncc(Br)s2)[C@@H]2C=C[C@H]1C21CC1` (racemic) [Example 237, (5R*)—N^5-(5-Bromo-thiazol-2-yl)-(6R*)—N^6-(3-pyrrolidin-1-yl-propyl)-(4S*,7R*)-[4,7-ethenylene-spiro[2.4]heptane]-5,6-dicarboxamide]: the EC50 in assay [1] came out at 305 nM; in assay [2] it was 542 nM.
Take `CC(=O)c1coc(CNC(=O)[C@H]2[C@H](C(=O)NCCCCN3CCCC3)[C@H]3C=C[C@@H]2C32CC2)n1` (racemic) [Example 243, (5R*)—N^5-(4-Acetyl-oxazol-2-yl-methyl)-(6R*)—N^6-(4-pyrrolidin-1-yl-butyl)-(4S*,7R*)-[4,7-ethenylene-spiro[2.4]heptane]-5,6-dicarboxamide]: the figures for the EC50 in assay [1] and in assay [2] were 170 nM and 2300 nM, respectively.
In the case of `CC(=O)c1csc(CNC(=O)[C@H]2[C@H](C(=O)NCC(C)C)[C@H]3C=C[C@@H]2C32CC2)n1` (racemic) [Example 244, (5R*)—N^5-(4-Acetyl-thiazol-2-yl-methyl)-(6R*)—N^6-(isobutyl)-(4S*,7R*)-[4,7-ethenylene-spiro[2.4]heptane]-5,6-dicarboxamide], the values for the EC50 in assay [1] and in assay [2] were 369 nM and above 25000 nM, respectively.
In the case of `CC(C)CNC(=O)[C@H]1[C@H](C(=O)NCc2ccc(Br)cc2)[C@@H]2C=C[C@H]1C21CC1` (racemic) [Example 246, (5R*)—N^5-(4-Bromo-phenyl-methyl)-(6R*)—N^6-(isobutyl)-(4S*,7R*)-[4,7-ethenylene-spiro[2.4]heptane]-5,6-dicarboxamide], the EC50 is 191 nM in assay [1] and 5330 nM in assay [2].
For `CC(=O)c1csc(CNC(=O)[C@H]2[C@H](C(=O)NCCCc3nc4ccccc4[nH]3)[C@H]3C=C[C@@H]2C32CC2)n1` (racemic) [Example 247, (5R*)—N^5-(4-Acetyl-thiazol-2-yl-methyl)-(6R*)—N^6-(3-(1H-benzoimidazol-2-yl)-propyl)-(4S*,7R*)-[4,7-ethenylene-spiro[2.4]heptane]-5,6-dicarboxamide], in that order: 106 nM and 1080 nM.
Turning to `O=C(NCCCc1nc2ccccc2[nH]1)[C@H]1[C@H](C(=O)Nc2ncc(Br)s2)[C@@H]2C=C[C@H]1C21CC1` (racemic) [Example 248, (5R*)—N^5-(5-Bromo-thiazol-2-yl)-(6R*)—N^6-(3-(1H-benzoimidazol-2-yl)-propyl)-(4S*,7R*)-[4,7-ethenylene-spiro[2.4]heptane]-5,6-dicarboxamide], the EC50 in assay [1] came out at 174 nM; in assay [2] it was 3060 nM.
Consider `O=C(NCCCc1nc2ccccc2[nH]1)[C@H]1[C@H](C(=O)NCc2ccc(Br)cc2)[C@@H]2C=C[C@H]1C21CC1` (racemic) [Example 249, (5R*)—N^5-(4-Bromo-phenyl-methyl)-(6R*)—N^6-(3-(1H-benzoimidazol-2-yl)-propyl)-(4S*,7R*)-[4,7-ethenylene-spiro[2.4]heptane]-5,6-dicarboxamide], for which the results for the EC50 in assay [1] and in assay [2] were 216 nM and 47 nM, respectively.
As for `COc1ccc(NC(=O)[C@H]2[C@H](C(=O)NCCCCN3CCCC3)[C@H]3C=C[C@@H]2C32CC2)cn1` (racemic) [Example 250, (5R*)—N^5-(2-Methoxy-pyrid-5-yl)-(6R*)—N^6-(4-pyrrolidin-1-yl-butyl)-(4S*,7R*)-[4,7-ethenylene-spiro[2.4]heptane]-5,6-dicarboxamide], the EC50 was found to be 673 nM in assay [1] and 746 nM in assay [2].

By EC50 is commonly meant the concentration needed to bring the measured effect to its halfway point.

(Values after US8563714B2, “Bridged spiro [2.4] heptane derivatives as ALX receptor and/or FPRL2 agonists” (Actelion Pharmaceuticals Ltd., priority 2009, dated 2013).)
